Data: patent US8877731B2, “Azido nucleosides and nucleotide analogs” (Alios Biopharma, Inc., priority 2010, dated 2014)
Like-named read-outs stand apart in the source and are kept apart here.

How the values were obtained:
RSV A2 = assay: RSV RT-PCR based assay; format: cell-based
Procedure: RT-PCR based assays were performed in HEp-2 cells (ATCC: CCL-23) at a concentration of 20000 cell/well were plated in 96 well plates and incubated overnight. Each of the test compounds were ⅓ serially diluted and dosed to HEp-2 cells in duplicates. The highest final concentration for each compound was 100 uM. After 24 hour compound pre-incubation, RSV A2 (ATCC: VR-1540) at MOI of 0.1 was added. Two wells per compound were set aside as uninfected, untreated cell controls (CC), and four wells per test compound received virus only as a control for virus replication (VC). The assay was stopped 4 days after virus infection and conditioned media was removed for viral RNA isolation. The quantities of the RSV virus were measured by real-time PCR using a set of RSV specific primers and probe. The data was analyzed with Prism software with EC50 defined as drug concentration that reduced the viral load 50% from the viral control (VC).
(§1) Compounds of Formula (I) and Formula (II) are active in the assay as noted in Tables 2 and 3, where ‘A’ indicates an EC50<1 μM, ‘B’ indicates an EC50 of >1 μM and <10 μM, ‘C’ indicates an EC50>10 μM and <100 μM, and ‘D’ indicates an EC50>100 μM.

RSV Long strain = assay: RSV CPE reduction assay; format: cell-based
Procedure: CPE reduction assays were performed as described by Sidwell and Huffman et al., Appl Microbiol. (1971) 22(5):797-801 with slight modifications. HEp-2 cells (ATCC) at a concentration of 6000 cell/well were infected with RSV Long strain (ATCC) at a multiplicity of infection (m.o.i.) of 0.01, and each of the test compounds were provided to duplicate wells at final concentrations starting from 100 μM using ⅓ stepwise dilutions. For each compound, two wells were set aside as uninfected, untreated cell controls (CC), and two wells per test compound received virus only as a control for virus replication (VC). […] At the end of the incubation, 20 μl of cell counting kit-8 reagent (CCK-8, Dojindo Molecular Technologies, Inc.) were added to each well. After 4 hour incubation, the absorbance was measured in each well according to manufacturer's instruction, and the 50% effective concentration (EC50) was calculated by using regression analysis, based on the mean O.D. at each concentration of compound.
as §1

[1] = human respiratory syncytial virus, RT-PCR assay, HEp-2 cells, 24 hour compound pre-incubation, RSV A2 at MOI 0.1, 4 days after infection, viral load, read-out: EC50
[2] = human respiratory syncytial virus, 144 h, CPE assay, HEp-2 cells infected with RSV Long strain, m.o.i. 0.01, 6 days, CCK-8 readout, read-out: EC50

| Structure (SMILES) | EC50 (RSV A2; [1]) [µM] | EC50 (RSV Long strain; [2]) [µM] | other results |
| --- | --- | --- | --- |
| [N-]=[N+]=N[C@]1(CO)O[C@@H](n2ccc(N)nc2=O)C(F)(F)[C@@H]1O [Compound 1, 4′-azido-2′-deoxy-2′,2′-difluorocytidine] | < 1 | < 1 |  |
| [N-]=[N+]=N[C@]1(CO)O[C@@H](n2ccc(=O)[nH]c2=O)C(F)(F)[C@@H]1O [Compound 5, 4′-azido-2′-deoxy-2′,2′-difluorouridine] | > 100 | > 100 |  |
| C[C@@H]1[C@H](n2ccc(=O)[nH]c2=O)O[C@@](CO)(N=[N+]=[N-])[C@H]1O [Compound 6, 4′-azido-2′-deoxy-2′-methylarabinouridine] |  | > 100 |  |
| [N-]=[N+]=N[C@]1(CO)O[C@@H](n2ccc(N)nc2=O)[C@H](O)[C@@H]1O [Compound 7, 4′-azidocytidine] | 1 to 10 | 10 to 100 |  |
| [N-]=[N+]=N[C@]1(CO)O[C@@H](n2ccc(=O)[nH]c2=O)[C@H](O)[C@@H]1O [Compound 8, 4′-azidouridine] |  | > 100 |  |
| C[C@@H]1[C@H](n2ccc(N)nc2=O)O[C@@](CO)(N=[N+]=[N-])[C@H]1O [Compound 9, 4′-azido-2′-deoxy-2′-methylarabinocytidine] |  | > 100 |  |
| [N-]=[N+]=N[C@]1(CO)O[C@@H](n2ccc(N)nc2=O)[C@@H](O)[C@@H]1O [Compound 11, 4′-azidoarabinocytidine] | < 1 | < 1 |  |
| [N-]=[N+]=N[C@]1(CO)O[C@@H](n2ccc(=O)[nH]c2=O)[C@@H](O)[C@@H]1O [Compound 12, 4′-azidoarabinouridine] | > 100 | > 100 |  |
| CC(C)OC(=O)[C@H](C)NP(=S)(OC[C@@]1(N=[N+]=[N-])O[C@@H](n2ccc(=O)[nH]c2=O)[C@H](O)[C@@H]1O)Oc1ccccc1 (stereo partly drawn) [Compound 15, 4′-azidouridine 5′-(O-phenyl-N—(S)-1-(isopropoxycarbonyl)eth-1-yl)thiophosphoramidate] |  |  | EC50 (RSV A2; human respiratory syncytial virus, HEp-2): < 1 µM; EC50 (RSV Long strain; human respiratory syncytial virus, HEp-2, 144 h): < 1 µM |
| [N-]=[N+]=N[C@]1(CO)O[C@@H](n2ccc(=O)[nH]c2=O)[C@H](F)[C@@H]1O [Compound 17, 4′-azido-2′-deoxy-2′-fluorouridine] | > 100 | > 100 |  |
| CC(C)OC(=O)[C@H](C)NP(=O)(OC[C@@]1(N=[N+]=[N-])O[C@@H](n2ccc(N)nc2=O)C(F)(F)[C@@H]1O)Oc1ccccc1 (stereo partly drawn) [Compound 18, 4′-azido-2′-deoxy-2′,2′-difluorocytidine 5′-(O-phenyl-N—(S)-1-(isopropoxycarbonyl)ethyl)phosphoramidate] | 1 to 10 | 1 to 10 |  |
| CC(C)OC(=O)[C@H](C)NP(=O)(OC[C@@]1(N=[N+]=[N-])O[C@@H](n2ccc(=O)[nH]c2=O)C(F)(F)[C@@H]1O)Oc1ccccc1 (stereo partly drawn) [Compound 19, 4′-azido-2′-deoxy-2′,2′-difluorouridine 5′-(O-phenyl-N—(S)-1-(isopropoxycarbonyl)ethyl)phosphoramidate] | > 100 | > 100 |  |
| [N-]=[N+]=N[C@]1(CO)O[C@@H](n2ccc(=O)[nH]c2=O)[C@@H](F)[C@@H]1O [Compound 20, 4′-azido-2′-deoxy-2′-fluoroarabinouridine] | > 100 | > 100 |  |
| CC(C)OC(=O)[C@H](C)NP(=O)(OC[C@@]1(N=[N+]=[N-])O[C@@H](n2ccc(=O)[nH]c2=O)[C@H](O)[C@@H]1O)Oc1ccccc1 (stereo partly drawn) [Compound 21, 4′-azidouridine 5′-(O-phenyl-N—(S)-1-(isopropoxycarbonyl)eth-1-yl)phosphoramidate] | < 1 | < 1 |  |
| CC(C)OC(=O)[C@H](C)NP(=O)(OC[C@@]1(N=[N+]=[N-])O[C@@H](n2ccc(N)nc2=O)[C@H](O)[C@@H]1O)Oc1ccccc1 (stereo partly drawn) [Compound 22, 4′-azidocytidine 5′-(O-phenyl-N—(S)-1-(isopropoxycarbonyl)ethyl)phosphoramidate] | < 1 | < 1 |  |
| CC(C)OC(=O)[C@H](C)NP(=O)(OC[C@@]1(N=[N+]=[N-])O[C@@H](n2ccc(N)nc2=O)[C@H](F)[C@@H]1O)Oc1ccccc1 (stereo partly drawn) [Compound 23, 4′-azido-2′-deoxy-2′-fluorocytidine 5′-(O-phenyl-N—(S)-1-(isopropoxycarbonyl)ethyl)phosphoramidate] | 1 to 10 | 1 to 10 |  |
| CC(C)OC(=O)[C@H](C)NP(=O)(OC[C@@]1(N=[N+]=[N-])O[C@@H](n2ccc(=O)[nH]c2=O)[C@H](F)[C@@H]1O)Oc1ccccc1 (stereo partly drawn) [Compound 24, 4′-azido-2′-deoxy-2′-fluorouridine 5′-(O-phenyl-N—(S)-1-(isopropoxycarbonyl)ethyl)phosphoramidate] | > 100 | > 100 |  |
| [N-]=[N+]=N[C@]1(CO)O[C@@H](n2cnc3nc(N)[nH]c(=O)c32)[C@H](O)[C@@H]1O [Compound 25, 2-amino-7-(4-azido-β-D-ribofuranos-1-yl)-1H-purin-6(7H)-one] | > 100 | > 100 |  |
| CC(C)OC(=O)[C@H](C)NP(=O)(OC[C@@]1(N=[N+]=[N-])O[C@@H](n2ccc(=O)[nH]c2=O)[C@@H](F)[C@@H]1O)Oc1ccccc1 (stereo partly drawn) [Compound 26, 4′-azido-2′-deoxy-2′-fluorouarabinoridine 5′-(O-phenyl-N—(S)-1-(isopropoxycarbonyl)ethyl)phosphoramidate] | > 100 | > 100 |  |
| C[C@H](NP(=O)(OC[C@@]1(N=[N+]=[N-])O[C@@H](n2cnc3c(=O)[nH]c(N)nc32)[C@H](O)[C@@H]1O)Oc1ccccc1)C(=O)OC1CCCCC1 (stereo partly drawn) [Compound 29, 4′-azidoguanosine 5′-[O-phenyl-N—((S)-cyclohexoxycarbonyleth-1-yl))phosphoramidate] | < 1 | < 1 |  |
| C[C@H](NP(=O)(OCC1(N=[N+]=[N-])OC(n2cnc3c(=O)[nH]c(N)nc32)C(F)C1O)Oc1ccccc1)C(=O)OC1CCCCC1 (stereo partly drawn) [Compound 31, 4′-azido-2′-deoxy-2′-fluoroguanosine 5′-(O-phenyl-N—((S)-cyclohexoxycarbonyleth-1-yl))phosphoramidate] |  |  | EC50 (RSV A2; RT-PCR assay, HEp-2 cells, 24 hour compound pre-incubation, RSV A2 at MOI 0.1, 4 days after infection, viral load, read-out: EC50): < 1 µM; EC50 (RSV Long strain; CPE assay, HEp-2 cells infected with RSV Long strain, m.o.i. 0.01, 6 days, CCK-8 readout, read-out: EC50): < 1 µM |
| [N-]=[N+]=N[C@@]12COP(=O)(O)O[C@H]1[C@@H](F)[C@H](n1ccc(=O)[nH]c1=O)O2 [Compound 32, 4′-azido-2′-deoxy-2′-fluorouridine 3′,5′-cyclic phosphate] |  | > 100 |  |
| CC(C)OC(=O)[C@H](C)NP(=O)(N[C@@H](C)C(=O)OC(C)C)OC[C@@]1(N=[N+]=[N-])O[C@@H](n2ccc(N)nc2=O)C(F)(F)[C@@H]1O [Compound 33, 4′-azido-2′-deoxy-2′-difluorocytidine 5′-(N,N′-bis((S)-1-(isopropoxycarbonyl)ethyl))phosphordiamidate] | < 1 | < 1 |  |
| CC(C)OC(=O)[C@H](C)NP(=O)(OC[C@@]1(N=[N+]=[N-])O[C@@H](n2ccc(N)nc2=O)[C@@H](O)[C@@H]1O)Oc1ccccc1 (stereo partly drawn) [Compound 34, 4′-azidoarabinocytidine 5′-(O-phenyl-N—(S)-1-(isopropoxycarbonyl)ethyl)phosphoramidate] | > 100 | > 100 |  |
| CC(C)OC(=O)[C@H](C)NP(=O)(OC[C@@]1(N=[N+]=[N-])O[C@@H](n2ccc(=O)[nH]c2=O)[C@@H](O)[C@@H]1O)Oc1ccccc1 (stereo partly drawn) [Compound 35, 4′-azidoarabinouridine 5′-(O-phenyl-N—(S)-1-(isopropoxycarbonyl)ethyl)phosphoramidate] | < 1 | < 1 |  |
| [N-]=[N+]=N[C@]1(CO)O[C@@H](n2ccc(N)nc2=O)[C@H](Cl)[C@@H]1O [Compound 53, 4′-azido-2′-chloro-2′-deoxycytidine] | 1 to 10 |  |  |
